Data taken from PMC12373846, “Hemoglobin as a pseudoperoxidase and drug target for oxidative stress-related diseases” (Signal Transduction and Targeted Therapy, 2025).
Where a name gives a salt, the structure may show the parent alone. Read-outs that look alike come from different tables or passages of the source.

Key:
HRP = target: T1, HRP (Armoracia rusticana, UniProt P00433); assay: H2O2 assay with HRP (HRP-EC50); assay type: biochemical, horseradish
T1 sequence (P00433 31-353): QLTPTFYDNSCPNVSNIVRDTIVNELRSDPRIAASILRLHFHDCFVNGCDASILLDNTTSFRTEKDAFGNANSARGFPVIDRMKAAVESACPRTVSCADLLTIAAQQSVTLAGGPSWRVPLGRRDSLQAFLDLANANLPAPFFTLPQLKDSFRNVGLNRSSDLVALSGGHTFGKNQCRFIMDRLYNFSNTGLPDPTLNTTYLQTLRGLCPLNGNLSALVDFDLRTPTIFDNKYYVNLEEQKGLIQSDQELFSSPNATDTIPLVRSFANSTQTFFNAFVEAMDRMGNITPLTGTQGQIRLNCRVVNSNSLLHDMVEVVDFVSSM
Protocol: (§1) Hb (Sigma‒Aldrich, H7379), H2O2 (Sigma‒Aldrich, H1009), and Amplex Red reagents (Invitrogen, A12222) were obtained for the study. A 4 μM H2O2 solution was prepared in 50 mM sodium phosphate buffer (pH 7.2). Then, 49 μl of this mixture was mixed with 1 μl of the test compound in DMSO or distilled water. The mixture was combined with an assay mixture of Amplex Red reagent (20 mM stock to 0.1 mM) and HRP (200 U/ml stock to 0.2 U/ml) and added to the wells at 50 μl/well. After a 60-min incubation at 37 °C, resorufin production was quantified via a microplate fluorescence reader (SpectraMax iD5, Molecular Devices) at ex/em = 535/580 nm. The H2O2-decomposing activity was estimated via the following equation: (sample fluorescence-blank fluorescence)/(control absorbance-blank fluorescence) × 100. For the ROS-Glo assay, the H2O2 substrate solution and ROS-Glo detection solution were prepared according to the manufacturer’s instructions. 10 μM H2O2 and drugs were prepared as in the Amplex Red assay, with HRP, Hb, CAT, or GPx added as needed. The mixture was added to the wells at 100 μl/well and incubated for 60 min at 37 °C. H2O2 substrate solution was added, and the mixture was incubated at room temperature for 30 min. After the H2O2 substrate solution was added and incubated at room temperature for 30 min, the ROS-Glo detection solution was added, and the mixture was incubated for 15 min. Luminescence was measured via iD5 microplate readers. The H2O2-decomposing activity was estimated via the following equation: (sample luminescence-blank luminescence)/(control luminescence-blank luminescence) × 100. The U/ml was calculated on the basis of the amount of H2O2 reduced by Hb during the reaction, using μg/ml and U/mg.

Hb = target: T2, Hb (Homo sapiens, UniProt P68871); assay: ROS-Glo H2O2 assay with Hb; assay type: biochemical
T2 construct: purchased Sigma-Aldrich H7379
T2 sequence (P68871 2-147 limits assumed): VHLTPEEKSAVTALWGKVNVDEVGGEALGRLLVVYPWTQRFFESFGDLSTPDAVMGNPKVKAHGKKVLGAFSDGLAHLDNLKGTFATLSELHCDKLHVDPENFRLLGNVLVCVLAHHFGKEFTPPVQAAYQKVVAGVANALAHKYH
T2 sequence (P69905 2-142 partner limits assumed): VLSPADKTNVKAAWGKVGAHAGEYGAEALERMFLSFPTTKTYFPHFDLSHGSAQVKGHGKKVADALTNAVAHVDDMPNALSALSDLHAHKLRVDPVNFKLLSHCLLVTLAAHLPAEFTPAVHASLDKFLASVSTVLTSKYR
Protocol: as §1, with “The H2O2-decomposing activity was estimated via the following equation: (sample fluorescence-blank fluorescence)/(control absorbance-blank fluorescence) × 100.” left out, “The H2O2-decomposing activity was estimated via the following equation: (sample luminescence-blank luminescence)/(control luminescence-blank luminescence) × 100.” left out
To evaluate the extent of peroxidase function facilitation by HTPEB (1 μM) and KDS12025 (1 μM) in HRP (0.2 U/ml) and Hb (10 μg/ml), we used the ROS-Glo assay over 30 and 60 min. The fold change was calculated by dividing the delta values during the 30-min reaction for the vehicle over drug conditions.
To assess enzyme activity, the amount of H2O2 consumed over a specific time was quantified alongside a standard curve. For the peroxidase function of Hb, Hb was administered at doses ranging from 0.01 to 112 U/ml and preincubated with H2O2 and either DMSO, HTPEB (1 μM), or KDS12025 (1 μM) at 37 °C for 30 min. The remaining H2O2 was measured via the ROS-Glo assay and normalized against conditions without Hb. The dose‒response curve, EC50, and EC20 for H2O2 decomposition were calculated and determined by fitting the data with GraphPad Prism software. The fitting method had no special handling of outliers, and least squares regression with confidence intervals of the parameters was 95%.

[1] = test system: primary cultured hippocampal astrocytes; assay: DCFDA intracellular ROS assay; assay type: cell-based, mouse; details: Aβ 5μM + sodium pyruvate 1mM, Fig. 3e
Protocol: (§2) Primary hippocampal astrocytes were obtained from postnatal day 0‒2 (P0‒2) C57BL/6 mice as previously described.[73] The hippocampal tissue was dissected free of meninges, minced, and dissociated into a single-cell suspension by trituration. The cells were grown in Dulbecco’s modified Eagle’s medium supplemented with D-glucose (4500 mg/L), L-glutamine, sodium pyruvate (110 mg/L), 10% heat-inactivated horse serum, 10% heat-inactivated fetal bovine serum, and 1000 U/ml penicillin‒streptomycin. The cells were maintained at 37 °C in a humidified atmosphere containing 5% CO2.
The intracellular ROS levels of astrocytes were determined via 2′,7′- dichlorodihydrofluorescein diacetate (DCFDA; Thermo Fisher). Primary cultured hippocampal astrocytes were seeded into black 96-well plates (Ibidi) at a density of 5 × 10⁴ cells per well. The plates were incubated with oligomerized Aβ42 in the presence of KDS12008, KDS12017, KDS12025, HTPEB (10 µM each), and sodium pyruvate (1 mM). These cells were subsequently washed with Ca^2+ and Mg^2+-containing PBS, followed by the application of 30 µM DCFDA and incubation at 37 °C for 30 min in a dark incubator. The mean fluorescence intensity of each well was measured via iD5 microplate readers at 485 nm and 530 nm. The fluorescence values were calculated by subtracting the blank readings and normalizing them to those of the control group.

[2] = test system: primary cultured hippocampal astrocytes; assay: oROS-G intracellular H2O2 imaging; assay type: cell-based, mouse
Protocol: as §2
H2O2 specific, highly sensitive, and fast on-and-off kinetics, a genetically encoded oROS-G plasmid kindly provided by Dr. Andre Berndt. oROS-G was cloned under the GFAP104 promoter and delivered into primary cultured hippocampal astrocytes via the NeoN^TM transfection system (Invitrogen). The cells were treated with various concentrations of Aβ (1 to 10 μM) or 6-OHDA (Tocris, 2547; 10 to 50 μM) to induce aberrant H2O2. For subsequent experiments, 5 μM Aβ and 30 μM 6-OHDA were selected on the basis of initial dose‒response studies. KDS12025 (10 μM) and sodium pyruvate (1 mM) were applied as indicated in each experiment. For live-cell imaging, astrocytes were maintained in a humidified chamber at 37 °C with 5% […] during imaging to preserve physiological conditions. Changes in the fluorescence of oROS-G were recorded via an A1 Nikon confocal microscope equipped with a temperature- and humidity-controlled stage. Images were captured every 20 min for up to 40 h (20for the 6-OHDA experiments) via the NIS-Elements software (Nikon, Japan) for time-lapse imaging. The excitation and emission wavelengths for oROS-G fluorescence were set to 485 nm and 538 nm, respectively. Endpoint fluorescence measurements were also collected for KDS12025 dose-dependent experiments. To analyze the fluorescence intensity, individual regions of interest (ROIs) were manually selected for each astrocyte via NIS-Elements software (Nikon, Japan). The fluorescence intensity changes were normalized to the baseline values (ΔF/F0) to quantify the H2O2 dynamics. To determine the EC50 of KDS12025, endpoint fluorescence intensity data from oROS-G experiments were normalized to those of the Aβ+vehicle control group. The normalized data were analyzed via GraphPad Prism software to fit a four-parameter logistic curve, yielding the EC50 value for the H2O2-decomposing activity of KDS12025.

PAMPA BBB permeability = assay type: in vitro ADME; details: for BCS code: CNS +/- classification: 50 μM, 4 h; for Papp at 4 h, 50 μM: PAMPA, pH 7.4, 50 μM
Protocol: A parallel artificial membrane permeability assay (PAMPA)^70 was performed to validate the blood-brain barrier permeability of KDS12025. The procedure began by preparing a donor solution of the compound in a pH 7.4 donor buffer. This solution was added to the wells of a deep well plate, followed by the addition of a high-sensitivity UV plate filled with donor buffer to serve as the blank sample. An initial sample for the UV plate was taken to establish a baseline reading. The PAMPA sandwich was then assembled by adding the donor plate mixture to the donor plate well, followed by placing a BBB-lipid coated membrane on top and an acceptor plate filled with acceptor buffer. This setup was incubated at 25 °C for a specific duration to allow diffusion. Post-incubation, a sample from the acceptor plate was taken, and the UV absorbance was measured to determine the permeated amount of the test compound. The permeability was then calculated using the PAMPA explorer program, considering the initial donor concentration and the acceptor's concentration after incubation.

[3] = Tables S2, S3, read-out: HRP-EC50
[4] = Tables S2, S3, read-out: HB-EC50
[5] = read-out: BCS code: permeability classification

CNc1ccc(NCCc2ccccc2C(F)(F)F)cc1 [8h, N^1-methyl-N^4-(2-(trifluoromethyl)phenethyl)benzene-1,4-diamine hydrochloride salt]
EC50 (HRP; [3]): 500 nM
EC50 (Hb; [4]): 69.1 nM

CC(=O)C(=O)[O-].[Na+] [Sodium pyruvate, sodium pyruvate, reference compound]
Aβ-induced ROS level (DCFDA), normalized to control [1]: 149.1±6.194
oROS-G H2O2 level ([2]; 6-OHDA 30 μM + sodium pyruvate, Fig. 3k): 177.0±17.5
oROS-G H2O2 level, 40-h imaging ([2]; Aβ 5 μM + sodium pyruvate 1 mM, Fig. 3h): 137.5±9.751
oROS-G H2O2 level, 40-h imaging ([2]; putrescine 180 μM + sodium pyruvate 1 mM, Fig. 3i): 189.0±23.55

NCCc1cc(O)c(O)cc1O [6-OHDA, 6-hydroxydopamine, reference compound]
oROS-G H2O2 level ([2]; 6-OHDA 10μM, Fig. 3j): 153.8±24.7
oROS-G H2O2 level ([2]; 6-OHDA 30μM, Fig. 3j): 211.9±18.2
oROS-G H2O2 level ([2]; 6-OHDA 50μM, Fig. 3j): 271.2±14.8

COc1ccc(NCCc2ccc(C(F)(F)F)cc2)cc1 [7d, 4-methoxy-N-(4-(trifluoromethyl)phenethyl)aniline]
EC50 (HRP; [3]): 13300 nM
EC50 (Hb; [4]): 23400 nM

Cc1ccc(O)c(C(=O)O)c1 [p-Cresotic acid, reference compound]
EC50 (HRP; [3]): > 10000 nM
EC50 (Hb; [4]): > 10000 nM

FC(F)(F)c1ccc(CCNc2ccccc2)cc1 [7b, N-(4-(trifluoromethyl)phenethyl)aniline]
EC50 (HRP; [3]): > 10000 nM

CNc1ccc(NCCc2ccc(OC)cc2)cc1 [8e, N^1-(4-methoxyphenethyl)-N^4-methylbenzene-1,4-diamine]
EC50 (HRP; [3]): 790 nM
EC50 (Hb; [4]): 69.5 nM

O=C(O)c1cccc(NCCc2ccc(C(F)(F)F)cc2)c1 [7e, 3-((4-(trifluoromethyl)phenethyl)amino)benzoic acid]
EC50 (HRP; [3]): > 10000 nM
EC50 (Hb; [4]): > 10000 nM

NCCc1ccc(C(F)(F)F)cc1 [2-(4-(Trifluoromethyl)phenyl)ethylamine, reference compound]
EC50 (HRP): > 10000 nM
EC50 (Hb): > 10000 nM

CC(=O)[C@H]1CC[C@H]2[C@@H]3CCC4=CC(=O)CC[C@]4(C)[C@H]3CC[C@]12C [Progesterone]
BCS code: CNS +/- classification (PAMPA BBB permeability): + (> 10)
Papp at 4 h, 50 μM (PAMPA BBB permeability; U.V, read-out: Pe (PAMPA BBB permeability)): 42.2 ×10⁻⁶ cm/s
Papp at 4 h, 50 μM (PAMPA BBB permeability; [5]): > 0.4 ×10⁻⁶ cm/s

O=C(O)c1ccc(NCCc2ccc(C(F)(F)F)cc2)cc1 [7f, 4-((4-(trifluoromethyl)phenethyl)amino)benzoic acid]
EC50 (HRP; [3]): 22100 nM
EC50 (Hb; [4]): > 10000 nM

CNc1ccc(NCCc2cccc(C(F)(F)F)c2)cc1 [8g, N^1-methyl-N^4-(3-(trifluoromethyl)phenethyl)benzene-1,4-diamine hydrochloride salt]
EC50 (HRP; [3]): 378 nM
EC50 (Hb; [4]): 88.4 nM

Nc1ccc(O)c(C(=O)O)c1 [Mesalazine, reference compound]
EC50 (HRP; [3]): 3600 nM
EC50 (Hb; [4]): 213 nM

Oc1ccc(NCCc2ccc(C(F)(F)F)cc2)cc1 [7c, 4-((4-(trifluoromethyl)phenethyl)amino)phenol]
EC50 (HRP; [3]): > 10000 nM
EC50 (Hb; [4]): 5090 nM

O=C(O)c1ccccc1O [Salicylic Acid, reference compound]
EC50 (HRP; [3]): > 10000 nM
EC50 (Hb; [4]): > 10000 nM

CNC(=C[N+](=O)[O-])NCCSCc1ccc(CN(C)C)o1 [Ranitidine]
BCS code: CNS +/- classification (PAMPA BBB permeability): - (< 10)
Papp at 4 h, 50 μM (PAMPA BBB permeability; [5]): < 0.4 ×10⁻⁶ cm/s

CNc1ccc(NCCc2cccc(OC)c2)cc1 [8d, N^1-(3-methoxyphenethyl)-N^4-methylbenzene-1,4-diamine hydrochloride salt]
EC50 (HRP; [3]): 516 nM
EC50 (Hb; [4]): 85.5 nM

CNc1ccc(NCCc2ccccc2)cc1 [8f, N^1-methyl-N^4-phenethylbenzene-1,4-diamine hydrochloride salt]
EC50 (HRP; [3]): 897 nM
EC50 (Hb; [4]): 78.1 nM
